Results taken from ChEMBL document CHEMBL1201862, “PubChem BioAssay data set” (2004).
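Method: 48-hour compound exposure of cells in 96-well plates, five concentrations, linear interpolation of endpoints. GI50: concentration for 50% inhibition of growth.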 Active and inactive are the calls of the source. Cut-off read from the data, not from the text of the source: active = GI50 up to about 1.1 µM and inactive = higher.

Tests used:
Experiment in all cases: NCI anticancer screen, dose series, 48 h
[1] = tested on: NCI-H226
[2] = tested on: HCC 2998
[3] = tested on: UACC-62
[4] = tested on: NCI-H23
[5] = tested on: UO-31
[6] = tested on: NCI-H460
[7] = tested on: UACC-257
[8] = tested on: OVCAR-5
[9] = tested on: COLO 205
[10] = tested on: LOX IMVI
[11] = tested on: SNB-75
[12] = tested on: 786-0
[13] = tested on: KM12
[14] = tested on: IGROV-1
[15] = tested on: SW-620
[16] = tested on: U-251
[17] = tested on: OVCAR-4

SMILES	GI50 [1]	GI50 [2]	GI50 [3]	GI50 [4]	GI50 [5]	GI50 [6]	GI50 [7]	GI50 [8]	GI50 [9]	GI50 [10]	GI50 [11]	GI50 [12]	GI50 [13]	GI50 [14]	GI50 [15]	GI50 [16]	GI50 [17]
Oc1ccc(Br)cc1/C=N/c1ccc(Oc2ccc(/N=C/c3cc(Br)ccc3O)cc2)cc1	> 19.6 µM (inactive)	> 19.6 µM (inactive)	> 19.6 µM (inactive)	> 19.6 µM (inactive)	> 19.6 µM (inactive)	> 19.6 µM (inactive)	> 19.6 µM (inactive)	> 19.6 µM (inactive)	> 19.6 µM (inactive)	> 19.6 µM (inactive)	> 19.6 µM (inactive)	> 19.6 µM (inactive)	> 19.6 µM (inactive)	> 19.6 µM (inactive)	> 19.6 µM (inactive)	> 19.6 µM (inactive)	> 19.6 µM (inactive)
CCCCCCCCCC(=O)OCC1OC(n2cc(F)c(=O)[nH]c2=O)C(NC(=O)OCc2ccccc2)C(OC(=O)CCCCCCCCC)C1O (stereo not drawn)		41.2 µM (inactive)	44.2 µM (inactive)	25.5 µM (inactive)	40.2 µM (inactive)	> 10 µM (inactive)	61.8 µM (inactive)		32.8 µM (inactive)	16.6 µM (inactive)	16.3 µM (inactive)	18.9 µM (inactive)	31 µM (inactive)	> 100 µM (inactive)	26.4 µM (inactive)	15 µM (inactive)	16.6 µM (inactive)
CCCCc1c2c([n+]([O-])c3c1CCCC3)CCCC2	> 100 µM (inactive)	> 100 µM (inactive)		> 100 µM (inactive)	61.1 µM (inactive)	> 100 µM (inactive)	40.6 µM (inactive)		> 100 µM (inactive)	> 100 µM (inactive)		> 100 µM (inactive)	> 100 µM (inactive)	43.1 µM (inactive)	> 100 µM (inactive)	> 100 µM (inactive)	
CC(=O)OC1OC2C(NC(=O)OC(C)(C)C)C1CC2(OCc1ccccc1)OCc1ccccc1 (stereo not drawn)	24.7 µM (inactive)	21.6 µM (inactive)	19 µM (inactive)	18.8 µM (inactive)	13.1 µM (inactive)	34.8 µM (inactive)	19.1 µM (inactive)	28.3 µM (inactive)	21.7 µM (inactive)	> 10 µM (inactive)	36.2 µM (inactive)	23.3 µM (inactive)	27.8 µM (inactive)	27 µM (inactive)	32.8 µM (inactive)	14.4 µM (inactive)	
Cc1cc2nc3c(C(OC4OC(CO)C(O)C(O)C4O)C(O)CO)nn(-c4ccc(F)cc4)c3nc2cc1C (stereo not drawn)		> 100 µM (inactive)	> 100 µM (inactive)	> 100 µM (inactive)	> 100 µM (inactive)	> 100 µM (inactive)	> 100 µM (inactive)	> 100 µM (inactive)		> 100 µM (inactive)	80.7 µM (inactive)	> 100 µM (inactive)	> 100 µM (inactive)			> 100 µM (inactive)	> 100 µM (inactive)
Cc1n[nH]c(=S)n(C)c1=S	> 100 µM (inactive)		> 100 µM (inactive)	> 100 µM (inactive)	> 100 µM (inactive)	> 100 µM (inactive)		> 100 µM (inactive)	> 100 µM (inactive)	> 100 µM (inactive)	> 100 µM (inactive)	> 100 µM (inactive)		> 100 µM (inactive)	> 100 µM (inactive)	> 100 µM (inactive)	> 100 µM (inactive)
FC(F)(F)c1ccc(C2SCc3nc4ccccc4n32)cc1 (stereo not drawn)	> 100 µM (inactive)	> 100 µM (inactive)	26.4 µM (inactive)	5.89 µM (inactive)	> 100 µM (inactive)		6.56 µM (inactive)	15.5 µM (inactive)	> 100 µM (inactive)		60 µM (inactive)	> 100 µM (inactive)	50 µM (inactive)	14.2 µM (inactive)	> 100 µM (inactive)	> 100 µM (inactive)	
CN(C)C(=S)/N=c1\ssc(=S)n1Cc1ccncc1	> 100 µM (inactive)	21.1 µM (inactive)	10 µM (inactive)	23.9 µM (inactive)	15.5 µM (inactive)	13.8 µM (inactive)	26.7 µM (inactive)	40.8 µM (inactive)	> 100 µM (inactive)	19.8 µM (inactive)	13.6 µM (inactive)	21.7 µM (inactive)	4.79 µM (inactive)	17.9 µM (inactive)	16.5 µM (inactive)	14.7 µM (inactive)	20 µM (inactive)
CC1=C(c2nc3ccccc3s2)C(=O)OC1(C)C	> 100 µM (inactive)	> 100 µM (inactive)	> 100 µM (inactive)	> 100 µM (inactive)	> 100 µM (inactive)	> 100 µM (inactive)	> 100 µM (inactive)	> 100 µM (inactive)	> 100 µM (inactive)	> 100 µM (inactive)	86.5 µM (inactive)	> 100 µM (inactive)	> 100 µM (inactive)		> 100 µM (inactive)	> 100 µM (inactive)	> 100 µM (inactive)
O=[N+]([O-])c1ccc2nc(/C(=N/Nc3ccccc3)C(O)c3ccc(C(O)/C(=N\Nc4ccccc4)c4nc5ccc([N+](=O)[O-])cc5nc4O)cc3)cnc2c1 (stereo not drawn)		29.1 µM (inactive)	36 µM (inactive)	> 100 µM (inactive)	23 µM (inactive)	18.1 µM (inactive)	> 100 µM (inactive)	31.4 µM (inactive)	> 100 µM (inactive)			> 100 µM (inactive)	37.1 µM (inactive)	> 100 µM (inactive)	> 100 µM (inactive)		> 100 µM (inactive)
CC1(C)C(=O)C(=Cc2ccco2)C1=O	> 100 µM (inactive)	> 100 µM (inactive)	> 100 µM (inactive)	> 100 µM (inactive)	> 100 µM (inactive)	> 100 µM (inactive)	> 100 µM (inactive)	> 100 µM (inactive)	> 100 µM (inactive)	> 100 µM (inactive)	> 100 µM (inactive)	> 100 µM (inactive)	> 100 µM (inactive)	> 100 µM (inactive)	> 100 µM (inactive)	> 100 µM (inactive)	> 100 µM (inactive)
O=C(c1ccccc1)C1(Br)S(=O)(=O)OCCOS1(=O)=O	> 100 µM (inactive)	> 100 µM (inactive)	> 100 µM (inactive)	> 100 µM (inactive)	> 100 µM (inactive)	> 100 µM (inactive)	> 100 µM (inactive)	> 100 µM (inactive)	> 100 µM (inactive)	> 100 µM (inactive)	> 100 µM (inactive)	> 100 µM (inactive)		> 100 µM (inactive)	> 100 µM (inactive)	> 100 µM (inactive)	> 100 µM (inactive)
NC1=NN(c2ccccc2)C(=O)C1/C(=N\NC(=O)c1cc2ccccc2cc1O)C(=O)Nc1ccc(Cl)cc1 (stereo not drawn)	23.6 µM (inactive)	28.9 µM (inactive)	19 µM (inactive)	24.7 µM (inactive)	21.8 µM (inactive)	13.5 µM (inactive)	28.6 µM (inactive)	31.4 µM (inactive)	23.1 µM (inactive)		4.72 µM (inactive)	20.2 µM (inactive)	27.9 µM (inactive)	20 µM (inactive)	32.1 µM (inactive)	31.5 µM (inactive)	18.5 µM (inactive)
CN(C)C(=S)/N=c1\ss/c(=N\c2ccccc2)n1-c1ccccc1	10.7 µM (inactive)	18.7 µM (inactive)		25.8 µM (inactive)	32.9 µM (inactive)		24.2 µM (inactive)	> 100 µM (inactive)		17.1 µM (inactive)	14.8 µM (inactive)	16.1 µM (inactive)		25.1 µM (inactive)	25 µM (inactive)	24.7 µM (inactive)	0.275 µM (active)
OC1OCC(COc2cc(Cl)c(Cl)cc2Cl)OC1O (stereo not drawn)	41.5 µM (inactive)	30.4 µM (inactive)	33 µM (inactive)	59.2 µM (inactive)	41.9 µM (inactive)	44.5 µM (inactive)	35.9 µM (inactive)	> 100 µM (inactive)	52.1 µM (inactive)		26.2 µM (inactive)	77.1 µM (inactive)	35.6 µM (inactive)	80.9 µM (inactive)	19.1 µM (inactive)	36.6 µM (inactive)	31.8 µM (inactive)
COc1ccc(N2C(=O)C3CC(c4ccc(Br)cc4)c4c([nH]c5ccccc45)C3C2=O)cc1 (stereo not drawn)	18.6 µM (inactive)		16.1 µM (inactive)	11.4 µM (inactive)	11 µM (inactive)	4.92 µM (inactive)	17.3 µM (inactive)	22.6 µM (inactive)	9.02 µM (inactive)	4.69 µM (inactive)	9.12 µM (inactive)	2.2 µM (inactive)	13.1 µM (inactive)	10.6 µM (inactive)	5.81 µM (inactive)		3.25 µM (inactive)
COc1cc(/C=C/c2ccc(OC)c(O)c2)cc(OC)c1	3.45 µM (inactive)	20.3 µM (inactive)	3.15 µM (inactive)	3.44 µM (inactive)	9.46 µM (inactive)	3.65 µM (inactive)	5.86 µM (inactive)	31.8 µM (inactive)	26.5 µM (inactive)	12.2 µM (inactive)		15.7 µM (inactive)	12.4 µM (inactive)	18.7 µM (inactive)	3.82 µM (inactive)	3.92 µM (inactive)	14.3 µM (inactive)
COc1ccc(/C=C\c2cc(OC)c(OC)c(OC)c2)cc1	0.000499 µM (active)	0.0385 µM (active)	< 0.0001 µM (active)	0.000357 µM (active)	< 0.01 µM (active)	< 0.01 µM (active)	< 0.01 µM (active)	43.5 µM (inactive)	0.0291 µM (active)	0.000632 µM (active)	0.000237 µM (active)	0.000395 µM (active)	0.000124 µM (active)	0.0387 µM (active)	0.000237 µM (active)	0.000284 µM (active)	
